Columns and labels:
[1] = system: vascular lesion in the right middle frontal gyrus; conditions: general comparison statement in Example 14, no own test described; cited from earlier work
[2] = system: Grade 4 Atypical Teratoid Rhabdoid Tumor (ATRT) in the posterior fossa/brain stem; assay: Intraoperative NIR fluorescence imaging of tozuleristide during pediatric brain tumor resection; format: in vivo, human; conditions: Subject T613, 15 mg/m2 IV bolus about 13.5 hours prior to surgery
Procedure: This example describes use of the imaging system and/or method disclosed herein for coaxial illumination and visualization of tozuleristide fluorescence during surgical resection of a pediatric brain tumor. The imaging system of the present invention was used to image brain tissue to detect a cancer using fluorescence imaging. Surgery was performed to remove cancer from the subject.
Subject T613 was diagnosed with a Grade 4 Atypical Teratoid Rhabdoid Tumor (ATRT) in the posterior fossa/brain stem. Tozuleristide which is a peptide-fluorophore detectable agent (15 mg/m2 dose), was given by intravenous (IV) bolus injection about 13.5 hours prior to the start of surgery. The imaging head was attached to the Zeiss Pentero surgical microscope along with two eyepieces prior the start of surgery.
After the tumor was exposed, the imaging system was initialized and used continuously. The imaging system enabled the surgeon to view fluorescence and visible imaging together and simultaneously with the operating microscope. […] Moreover, there was no need to reposition the operating microscope to view the fluorescence and visible images thus providing imaging of the surgical area together with the fluorescence imaging system during the operation, which decreased disruption to the surgical workflow.
Video was captured for the duration of the tumor resection, and still images were captured of the exposed tumor. […] FIGS. 15A-15F show images taken from the tumor resection with the near-infrared (NIR) fluorescence images of the tumor using the imaging system (FIGS. 15B and 15E) and the overlay image with the NIR fluorescence overlaid with the white light or visible light spectrum illumination (FIGS. 15C and 15F). […] In the overlay image, the normal brain tissue appeared red, as it does under normal visible light or white light as shown the visible light images of the tumor (FIGS. 15A and 15D). The surgeon noted that only tumor tissue appeared fluorescent.

[3] = system: vascular lesion in the right middle frontal gyrus; assay: Intraoperative NIR fluorescence imaging of tozuleristide during resection of a vascular lesion (arteriovenous or cavernous malformation); format: in vivo, human; conditions: for Fluorescence of surrounding tissue, normal brain tissue and normal vasculature / Fluorescence of the abnormal vascular tissue / vascular lesion: pediatric subject, 22 mg (15 mg/m^2) IV approximately 5-6 hours before surgery, NIR fluorescence; for Fluorescence of the abnormal vascular tissue / vascular lesion: in situ
Procedure: (§1) This example describes use of the imaging system and/or methods disclosed herein for coaxial illumination and visualization of tozuleristide fluorescence during surgical resection of an arteriovenous malformation or cavernous malformation in a pediatric patient. The imaging system of the present invention was used to image brain tissue to detect abnormal vasculature using fluorescence imaging. Surgery was performed to remove the abnormality from the subject.
A pediatric subject with a history of anosmia was found on MRI to have a 3.5 cm T1-hypointense, T2/FLAIR-hyperintense mass in the right middle frontal gyrus with a central enhancing nodule, initially diagnosed pre-operatively to be a low-grade glioma. […] The patient received 22 mg (15 mg/M^2) of tozuleristide via IV injection approximately 5-6 hours before surgery and image collection. The imaging system head was attached to the Zeiss Pentero surgical microscope along with two eyepieces prior the start of surgery.
After the lesion was exposed, the imaging system was initialized and used continuously. The imaging system enabled the surgeon to view fluorescence and visible imaging together and simultaneously with the operating microscope. A microsurgical resection was performed through a right frontal craniotomy. […] The abnormal tissue was completely resected. The patient recovered without deficit. Pathology confirmed the absence of tumor.
Video was captured for the duration of the resection, and still images were captured of the exposed lesion. […] FIGS. 18 and 19 show images taken from the vascular lesion with the near-infrared (NIR) fluorescence images of the vascular lesion using the imaging system. […] In the overlay image, the normal brain tissue and normal blood vessels appeared pink or light tan to red, as it does under normal visible light or white light. The surgeon noted that only the abnormal vascular tissue appeared fluorescent.

[4] = system: cerebral cavernous malformation in the left cerebellar hemisphere; assay: Intraoperative NIR fluorescence imaging of tozuleristide during cavernous malformation resection; format: in vivo, human; conditions: pediatric patient; 15 mg/m2 IV on the morning of surgery
Procedure: as §1, with “compounds and” for “imaging system and/or”, “a” for “an arteriovenous malformation or”, “An” for “The”, “system” for “system of the present invention”
The patient received 15 mg/m2 of a fluorescent conjugate comprising SEQ ID NO: 1 conjugated to an ICG (tozuleristide, also referred to herein as Compound 76) via IV injection on the morning of surgery and image collection. The imaging system head was attached to the Zeiss Pentero surgical microscope along with two eyepieces prior the start of surgery.
After the lesion was exposed, the imaging system was initialized and used continuously. The imaging system enabled the surgeon to view fluorescence and visible imaging together and simultaneously with the operating microscope. A microsurgical resection was performed through a left retroaricular craniotomy with frameless stereotactic navigation and intraoperative ultrasonography. A round mulberry appearing vascular lesion that contained areas of thrombosed vessels and firm calcifications was encountered. […] The lesion was removed. […]

Row | Molecule | Behaviour of ICG alone after injection (comparison statement) [1] | Surgeon-noted distinction between tumor and normal tissue with NIR fluorescence [2] | Background fluorescence in non-tumor or normal brain tissue ([2]; NIR fluorescence image) | Tozuleristide fluorescence in the exposed tumor ([2]; NIR fluorescence, in situ) | Time after injection during which diseased tissue can be highlighted ([3]; general statement in Example 14, fluorescence dependent on pathological tissue binding and uptake) | Fluorescence of surrounding tissue, normal brain tissue and normal vasculature [3] | Fluorescence of the abnormal vascular tissue / vascular lesion [3] | Fluorescence of the abnormal vascular tissue / vascular lesion ([3]; listed as Tozuleristide) | Fluorescence of the abnormal vascular tissue / vascular lesion ([3]; listed as toluzeristide) | Fluorescence of surrounding tissue, normal brain tissue and normal vasculature ([3]; listed as Tozuleristide) | Fluorescence of surrounding tissue, normal brain tissue and normal vasculature ([3]; listed as toluzeristide) | Fluorescence of the cavernous malformation lesion [4] | Fluorescence of the surrounding cerebellum [4]
1 | CC1(C)C(/C=C/C=C/C=C/C=C2\N(CCCCS(=O)(=O)O)c3ccc4ccccc4c3C2(C)C)=[N+](CCCCS(=O)(=O)[O-])c2ccc3ccccc3c21 [ICG, indocyanine green] | transiently lights up blood vessels immediately after injection |  |  |  |  |  |  |  |  |  |  |  | 
2 | tozuleristide |  | very good distinction between tumor and normal tissue fluorescence | no discernable background fluorescence | observed in situ in the exposed tumor | up to 30 hours | non-fluorescent | indicative of the presence of tozuleristide in the vascular lesion | observed in situ in the exposed vascular lesion | fluoresced avidly | no discernable background fluorescence | no fluorescence | fluoresced avidly | did not fluoresce

Reference: patent publication US20220346650A1, “SYSTEMS AND METHODS FOR VASCULAR AND STRUCTURAL IMAGING” (priority 2019, published 2022)
